Columns and labels:
[1] = target: T1, AHR (aryl hydrocarbon receptor) (Homo sapiens, UniProt P35869); test: ATG_Ahr_CIS: Factorial reporter gene assay (multiplexed transcription reporter, HepG2); assay type: cell-based; parameters: scale not given here
T1 construct: endogenous in cells; host or cells: HepG2
T1 sequence (P35869 11-848): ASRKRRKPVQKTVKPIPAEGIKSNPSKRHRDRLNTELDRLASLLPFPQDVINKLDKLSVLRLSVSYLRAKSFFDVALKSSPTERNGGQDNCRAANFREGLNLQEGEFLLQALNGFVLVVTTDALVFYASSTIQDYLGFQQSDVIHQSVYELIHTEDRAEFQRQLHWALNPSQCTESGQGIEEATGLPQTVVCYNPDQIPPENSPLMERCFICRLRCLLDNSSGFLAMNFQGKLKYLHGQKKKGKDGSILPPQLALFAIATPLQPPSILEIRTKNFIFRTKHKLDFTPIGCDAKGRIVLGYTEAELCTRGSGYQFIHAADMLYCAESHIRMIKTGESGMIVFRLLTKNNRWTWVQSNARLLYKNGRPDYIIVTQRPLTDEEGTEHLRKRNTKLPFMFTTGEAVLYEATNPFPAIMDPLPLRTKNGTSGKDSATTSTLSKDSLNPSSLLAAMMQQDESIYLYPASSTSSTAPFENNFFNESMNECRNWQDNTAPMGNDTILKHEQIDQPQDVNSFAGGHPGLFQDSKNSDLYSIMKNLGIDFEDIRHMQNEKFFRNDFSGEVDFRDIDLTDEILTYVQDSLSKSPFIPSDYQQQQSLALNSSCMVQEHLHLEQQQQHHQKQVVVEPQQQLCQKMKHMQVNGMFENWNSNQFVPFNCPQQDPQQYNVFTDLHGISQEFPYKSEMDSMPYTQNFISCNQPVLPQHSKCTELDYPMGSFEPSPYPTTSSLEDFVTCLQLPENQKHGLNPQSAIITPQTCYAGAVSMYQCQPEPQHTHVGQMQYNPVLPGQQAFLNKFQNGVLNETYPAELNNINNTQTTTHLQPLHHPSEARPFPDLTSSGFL
How it was run: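 HepG2 cells transfected with multiplexed reporter libraries: cis-acting binding-site reporters (CIS) and a one-hybrid nuclear-receptor trans system (TRANS). Chemicals tested at seven concentrations, starting at the maximum tolerated concentration with three-fold serial dilutions.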

PPARa (PPARA) [2] = target: T2, PPARa (PPARA) (Homo sapiens, UniProt Q07869); test: NVS_NR_hPPARa: Human PPARa Fluormone Pan-PPAR green (cell-free HTS); assay type: binding; settings: scale not given, looks like -log10 of molar active concentration, 0 = no activity
T2 sequence (Q07869 1-468): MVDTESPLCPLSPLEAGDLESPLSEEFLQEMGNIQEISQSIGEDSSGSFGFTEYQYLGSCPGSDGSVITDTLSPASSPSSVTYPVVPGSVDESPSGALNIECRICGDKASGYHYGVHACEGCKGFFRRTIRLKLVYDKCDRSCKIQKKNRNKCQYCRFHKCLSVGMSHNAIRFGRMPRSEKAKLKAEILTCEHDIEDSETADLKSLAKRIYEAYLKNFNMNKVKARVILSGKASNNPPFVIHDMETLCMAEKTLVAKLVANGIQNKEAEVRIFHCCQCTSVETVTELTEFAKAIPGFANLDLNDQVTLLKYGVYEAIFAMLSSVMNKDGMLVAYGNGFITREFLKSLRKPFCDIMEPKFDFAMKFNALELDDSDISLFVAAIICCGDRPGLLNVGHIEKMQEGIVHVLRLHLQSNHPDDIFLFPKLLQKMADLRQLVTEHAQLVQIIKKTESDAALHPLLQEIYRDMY
Source text: These are a collection of biochemical assays measuring binding constants and enzyme inhibition values. Chemicals were initially screened at a single concentration in duplicate wells at a concentration of 10 [drawing 63] M for cytochrome P-450 assays and 25 [drawing 64] M for all others. […] These assays were run by Caliper Life Sciences (Hanover, MD) under contract to EPA. Short assay descriptions are available at: http://www.caliperls.com/products/contract-research/in-vitro/.
Cell-free HTS Assays: A collection of biochemical assays measuring binding constants and enzyme inhibition values. […] These assays were run by Caliper Life Sciences (Hanover, MD) under contract to EPA. Short assay descriptions are available at http://www.caliperls.com/products/contract-research/in-vitro/. Values for all endpoints were imported into GeneData Screener (Basel, Switzerland) and normalised to solvent controls from the same plate as the tested compounds and expressed as percent of neutral control. Concentration-response curves were fit in GeneData Screener (Basel, Switzerland) Condeseo module using the Hill equation and AC50 values were determined. […] Detailed description of the methods, data and analysis methods for this dataset are described in a separate publication.

PPARa (PPARA) [3] = target: T2, PPARa (PPARA); test: NCGC_PPARa_Agonist: GAL4 BLAM Reporter gene assay: PPARa; assay type: cell-based; parameters: expressed in transfected cells; host or cells: HEK293; settings: agonist mode
Method: These assays measure binding constants and enzyme inhibition values for nuclear receptors. The targets include [drawing 67] , [drawing 68] , [drawing 69] , [drawing 70] , [drawing 71] , [drawing 72] , [drawing 73] , [drawing 74] , [drawing 75] and [drawing 76] . Each of the nuclear receptor targets was measured in agonist mode. Assays were run at the NIH Chemical Genomics Center (Rockville, MD).
Cell-based HTS Assays: These assays measuring binding constants and enzyme inhibition values for nuclear receptors. The targets include AR, ER, FXR, LXR, PPARα, PPARδ, PPARγ, RXRα, RXRβ and PXR. Each of the nuclear receptor targets was measured in both agonist and antagonist mode, but the antagonist data is still undergoing analysis due to possible interference between cytotoxicity and assay activity, so antagonist mode data were not used in the present analysis. Assays were run at the NIH Chemical Genomics Center (Rockville, MD) as part of the Tox21 collaboration. […] The R^2 was required to be ≥0.5. Values where only the highest concentration exceeded 50% activity were excluded to eliminate weak or false positives. Detailed description of the methods, data and analysis methods for this dataset will be presented in a separate publication.

[4] = HepG2, scale not given, looks like -log10 of molar active concentration, 0 = no activity
[5] = scale not given, looks like -log10 of molar active concentration, 0 = no activity

SMILES | ATG_Ahr_CIS [1, 4] | NVS_NR_hPPARa (PPARa (PPARA) [2]) | NCGC_PPARa_Agonist (PPARa (PPARA) [3]; [5]) | ATG_Ahr_CIS ([1]; HepG2) | NCGC_PPARa_Agonist (PPARa (PPARA) [3]) | ATG_Ahr_CIS ([1]; HepG2 reporter)
COC(=O)c1ccccc1CS(=O)(=O)NC(=O)Nc1nc(OC)cc(OC)n1 [r33] | 0 | 0 | 0 | – | – | –
CC(C)N1C(=O)c2ccccc2NS1(=O)=O [r37] | 0 | 0 | 0 | – | – | –
COc1ccc(-c2ccccc2)cc1NNC(=O)OC(C)C [r38] | – | 0 | 0 | – | – | –
Cc1c(COC(=O)C2C(/C=C(\Cl)C(F)(F)F)C2(C)C)cccc1-c1ccccc1 (centres unmarked) [r39] | 0 | 0 | 0 | – | – | –
CC(C)(c1ccc(O)cc1)c1ccc(O)cc1 [r40] | 4.495 | 0 | 0 | – | – | –
OB(O)O [r41] | 0 | 0 | 0 | – | – | –
O=C(Nc1ccccc1-c1ccc(Cl)cc1)c1cccnc1Cl [r42] | 0 | 0 | 0 | – | – | –
CCC(C)n1c(=O)[nH]c(C)c(Br)c1=O (centres unmarked) [r43] | 0 | 0 | 0 | – | – | –
N#Cc1cc(Br)c(O)c(Br)c1 [r44] | 4.319 | 0 | 4.173 | – | – | –
CC(C)N1C(=O)N(c2ccccc2)CS/C1=N\C(C)(C)C [r45] | 0 | 0 | 0 | – | – | –
CCCCOCN(C(=O)CCl)c1c(CC)cccc1CC [r46] | 0 | 0 | 0 | – | – | –
C=CCOC(=O)C(C)(C)OC(=O)c1cc(-n2c(=O)cc(C(F)(F)F)n(C)c2=O)ccc1Cl [r47] | 0 | 0 | 0 | – | – | –
CCC(C)Nc1c([N+](=O)[O-])cc(C(C)(C)C)cc1[N+](=O)[O-] (centres unmarked) [r48] | 0 | 0 | 0 | – | – | –
CCSC(=O)N(CC(C)C)CC(C)C [r49] | 0 | 0 | 0 | – | – | –
O=C1C2CC=CCC2C(=O)N1SC(Cl)(Cl)Cl (centres unmarked) [r51] | 0 | 0 | 0 | – | – | –
CNC(=O)Oc1cccc2ccccc12 [r52] | 4.456 | 0 | 0 | – | – | –
CC1=C(C(=O)Nc2ccccc2)SCCO1 [r53] | 0 | 0 | 0 | – | – | –
CCOC(=O)C(Cl)Cc1cc(-n2nc(C)n(C(F)F)c2=O)c(F)cc1Cl (centres unmarked) [r54] | 0 | 0 | 0 | – | – | –
Nc1cnn(-c2ccccc2)c(=O)c1Cl [r56] | 4.444 | 0 | 0 | – | – | –
COc1cc(Cl)c(OC)cc1Cl [r57] | 0 | 0 | 0 | – | – | –
N#Cc1c(Cl)c(Cl)c(Cl)c(C#N)c1Cl [r58] | 0 | 0 | 0 | – | – | –
CC(C)OC(=O)Nc1cccc(Cl)c1 [r59] | 0 | 0 | 0 | – | – | –
COc1nc(C)nc(NC(=O)NS(=O)(=O)c2ccccc2Cl)n1 [r62] | 0 | 0 | 0 | – | – | –
COc1nc(C)nc(NC(=O)NS(=O)(=O)c2ccccc2Cl)n1 [r63] | 0 | 0 | 0 | – | – | –
Cc1ccccc1CO[C@@H]1C[C@@]2(C(C)C)CC[C@]1(C)O2 [r64] | 0 | 0 | 0 | – | – | –
CCCN(CCC)c1c([N+](=O)[O-])cc(C(F)(F)F)c(N)c1[N+](=O)[O-] [r252] | – | – | – | 4.444 | 4.688 | –
CCCC1COC(Cn2cncn2)(c2ccc(Cl)cc2Cl)O1 (centres unmarked) [r262] | – | – | – | 4.367 | – | –
CCc1ccc(C(=O)NN(C(=O)c2cc(C)cc(C)c2)C(C)(C)C)cc1 [r290] | – | – | – | – | – | 4.337
COc1cccc(C(=O)NN(C(=O)c2cc(C)cc(C)c2)C(C)(C)C)c1C [row 202] | – | – | – | 4.409 | – | –
CCN(CC)C(=O)C(C)Oc1cccc2ccccc12 (centres unmarked) [row 219] | – | – | – | 4.456 | – | –

— paper PMC3038857, “Using Nuclear Receptor Activity to Stratify Hepatocarcinogens” (PLoS ONE, 2011)
